Data taken from patent publication US20110256565A1, “METHODS FOR DIAGNOSIS AND TREATMENT OF NEURODEGENERATIVE DISEASES OR DISORDERS” (priority 2008, published 2011).

Experiments:
neuroblastoma cells = conditions: cited from earlier work
human erythrocytes = conditions: incubation time ~2 min, 37° C., read-out: LC50 (concentration to kill 50% of the cells); cited from earlier work
[1] = tested on: fibroblasts from FAD patients with pathogenic mutations in PS1 and from sporadic AD (SAD) patients; assay: Cinnamycin sensitivity, Live/Dead assay in patient fibroblasts; type: cell-based, human; conditions: 1 μM cinnamycin for 10 min at 37° C.; fibroblasts from SAD patients (FIG. 43)
Experimental: FIG. 43. Cinnamycin sensitivity in fibroblasts from FAD patients with pathogenic mutations in PS1 (PS1) and from sporadic AD (SAD) patients. Cells were treated with 1 μM cinnamycin for 10 min at 37° C., and viabitlity was monitored by Live/Dead assay.

PS-mutant MEFs = assay: Cinnamycin sensitivity, live/dead assay in MEFs; type: cell-based, mouse; conditions: PS-mutant MEFs vs. control MEFs; 1 μM cinnamycin for 10 min at 37° C., live/dead assay (FIG. 41D)
Experimental: FIG. 41. Phospholipid synthesis in MEFs. FIG. 41A: Synthesis of PtdSer and PtdEtn after 3H-Ser labeling for the indicated times (hours) (n=3). FIG. 41B: Pulse-chase. MEFs labeled for 1 h with 3H-Ser; chase with cold Ser (n=3). FIG. 41C: Phospholipid synthesis in crude mitochondria (n=3 or 4) Error bars, SE; p<0.05. FIG. 41D: Cinnamycin sensitivity in MEFs. Left: Live/dead assay (1 μM cinnamycin for 10 min at 37° C.). Right: Cinnamycin-sensitivity assay (10 min at 37° C.).
AD patients have aberrant phospholipid profiles, both in fibroblasts and in brain (Pettegrew et al., (2001) Neurochem. Res. 26, 771-782; Murphy et al., (2006) Brain Res. Bull. 69, 79-85). PtdSer and PtdEtn are exported to the inner leaflet of the plasma membrane (Vance (2008) J. Lipid Res. 49, 1377-1387). […] Both the 3H-Ser and cinnamycin results are relevant to the pathogenesis of AD.
Cinnamycin sensitivity assays. To measure cinnamycin binding (Emoto et al. (1999) Proc. Natl. Acad. Sci. USA 96:12400-12405), cells are incubated with 125I-labeled streptavidin complexed with cinnamycin (Ro 09-0198) peptide complex (1251-SA-Cin; 50,000 cpm/ml; Sigma) for 1 h at 39.5° C. The radioactivities of 125I-SA-Cin bound to the cells is analyzed by bioimage analyzer. […] Viability will be measured by “live/dead” assay (Molecular Probes).

GSK3B = GSK3B (Homo sapiens, UniProt P49841); conditions: cited from earlier work
GSK3B, sequence (P49841 whole entry, species assumed): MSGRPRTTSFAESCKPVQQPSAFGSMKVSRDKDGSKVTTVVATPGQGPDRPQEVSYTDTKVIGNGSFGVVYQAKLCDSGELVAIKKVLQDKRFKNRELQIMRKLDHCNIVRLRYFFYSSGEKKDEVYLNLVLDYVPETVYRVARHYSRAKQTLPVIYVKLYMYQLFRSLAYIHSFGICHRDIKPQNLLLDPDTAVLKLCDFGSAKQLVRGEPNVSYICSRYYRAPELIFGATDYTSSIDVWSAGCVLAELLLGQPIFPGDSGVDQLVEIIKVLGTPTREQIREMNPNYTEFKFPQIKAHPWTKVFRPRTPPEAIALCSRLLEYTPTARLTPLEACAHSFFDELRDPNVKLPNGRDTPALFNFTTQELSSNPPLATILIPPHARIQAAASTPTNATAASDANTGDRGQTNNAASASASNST

O=C1NC(=O)C(c2ccccc2[N+](=O)[O-])=C1Nc1ccc(O)c(Cl)c1 [SB415286]
Effect on neurite outgrowth (neuroblastoma cells): inhibit neurite outgrowth

cinnamycin
CC50 (human erythrocytes): ~1 mM | Cinnamycin sensitivity (viability by Live/Dead assay) [1]: cinnamycin sensitivity in the SAD patients | Sensitivity to cinnamycin vs. controls (PS-mutant MEFs): more sensitive

Cn1sc(=O)n(Cc2ccccc2)c1=O [TDZD-8]
Effect on GSK3B activity (GSK3B): inhibit GSK3B activity
